Measured values published in patent US20120289612A1, “Composite Material and Method for Producing the Same” (HOUSE FOODS CORPORATION, priority 2010, published 2012).

System: acylase
Experiment: Enzyme addition: decomposition of capsaicin by acylase, HPLC
Format: physicochemical
Conditions: acylase 0.05 u/ml, 50 mM tris buffer, 37° C., capsaicin 0.0028%, relative to beginning of shaking
Description: Each of the samples obtained in Reference Example 2 and Reference Comparative Example 2 was diluted 10-fold with a 50 mM tris buffer (capsaicin concentration: 0.0028%). To this liquid, an acylase was added at a concentration of 0.05 u/ml. The mixture was shaken in a constant-temperature water bath at 37° C. to allow the reaction of the enzyme to proceed.
Meanwhile, as Reference Example, a capsaicin reagent (capsaicin content: 95% or more) manufactured by SIGMA was diluted with a 50 mM tris buffer such that the capsaicin concentration was the same as that (0.0028%) in Reference Example 2 and Reference Comparative Example 2. To this liquid, an acylase was added at a concentration of 0.05 u/ml. The mixture was shaken in a constant-temperature water bath at 37° C. in the same manner as in Reference Example 2 and Reference Comparative Example 2, to allow the reaction of the enzyme to proceed.
To 2 ml of each sample in which the reaction of the enzyme was allowed to proceed for 0 (at the beginning of the shaking) minutes, 30 minutes, or 60 minutes, 3 ml of water was added, and thus the volume thereof was adjusted to 5 ml. Moreover, 1 ml of 2.5 N NaOH was added thereto, followed by heating in boiling water at 100° C. for 10 minutes. After the heating, 20 ml of methanol was added thereto. […] For the HPLC measurement, a fluorescence detector was used. […]

ratio of capsaicin remaining after the enzymatic reaction for 60 minutes: 2.0%
Compound: COc1cc(CNC(=O)CCCC/C=C/C(C)C)ccc1O [Reference Example, capsaicin]
